test: In vitro kinase assay using purified enzyme, was incubated at room temperature with substrate, and test compounds in the presence of 100 uM ATP/ [gamma-33P] ATP. 33P incorporation was measured with scintillation counter. IC50 values were calculated from dose-response curves; from these calculated apparent inhibition constants (Ki) were obtained usin; details: pH 7.5

Point of comparison: OCCCNc1cc(-c2ccnc(Nc3cccc(OC(F)(F)C(F)F)c3)n2)ccn1 [3-{[4-(2-{[3-(1,1,2,2-tetrafluoroethoxy)phenyl]amino}pyrimidin-4-yl)pyridin-2-yl]amino}propan-1-ol], IC50 3.6 µM. Against it:
- Clc1cccc(Nc2nccc(-c3ccnc(NCCc4cnc[nH]4)c3)n2)c1 [N-(3-chlorophenyl)-4-(2-{[2-(1H-imidazol-4-yl)ethyl]amino}pyridin-4-yl)pyrimidin-2-amine] — within 1.5-fold, 3.2 µM
- NCCNc1cc(-c2ccnc(Nc3cccc(Cl)c3)n2)ccn1 [4-{2-[(2-aminoethyl)amino]pyridin-4-yl}-N-(3-chlorophenyl)pyrimidin-2-amine] — 2.7-fold higher, 9.6 µM

Reference: BindingDB's records for doi:10.1042/BJ20030674 (University of Padova, 2003)
